Assay results published in patent US20130123253A1, “MODULATORS OF CENTRAL NERVOUS SYSTEM NEUROTRANSMITTERS” (HUMAN BIOMOLECULAR RESEARCH INSTITUTE, priority 2004, published 2013).
Read-outs that look alike come from different tables or passages of the source. Each block holds one molecule with its values, some of them ahead of it.

Columns and labels:
Balb/c mice = assay: Forced-swim test in Balb/c mice; type: in vivo, mouse; conditions: i.p. 23, 5 and 1 hr prior; fluoxetine 10 mg/kg, 18k/l or 14 10 mg/kg, 21 1 mg/kg
Description: The study was conducted according to a standard operation procedure and in accordance with all Federal regulations. Water and food were freely available in the home cages. […] Mice were given a swimming pretest session, once a day for two successive days. […] During the pretest and test sessions, each mouse was placed for […] in a plastic cylinder (45 cm high×20 cm diameter), which was filled to a depth of 28 cm with water (23±1° C.). The duration of immobility, which was defined as floating in an upright position without additional activity other than that necessary for the animal to keep its head above water, was recorded. For the subchronic administration tests, the animals were separated as above and vehicle or chemicals were given by i.p. administration 23, 5 and 1 hr before the FST. The subchronic experiments were done similar to the study described above except for the pretest training that was not carried out.
Mice in the first session were treated with vehicle or the drugs acutely, whereas mice in the second sessions were treated subchronically, i.e., vehicle or drugs were given i.p. 23, 5, and 1 hr before the FST. The experiment was performed similar to Experiment 1 except for the pretest training, which was not carried out in the second session.

[1] = Human liver microsome stability assay; type: in vitro ADME
Description: (§1) Microsomal incubations (final volume 0.25 mL) with the SSRIs, dual PDE4 inhibitor/SSRIs or PDE4 inhibitor was done with an HPLC assay as described above. Diluted stocks of either mouse, human or rat liver microsomes (0.5 mg of protein), […] potassium phosphate buffer (pH 7.4), 0.5 mM NADI)^+, 0.5 mM glucose-6-phosphate, 5 IU/mL glucose-6-phosphate dehydrogenase, 0.6 mM DETAPAC, and 3 mM MgC12 were combined and placed on ice. For a metabolic stability assay, either vehicle or 40 μM test compound was added and the incubation was initiated at 37° C. with constant shaking. After 0, 10, 25, 40 and 60 min, the incubations were stopped by the addition of 1 mL CH2Cl2/2-propanol (3:1, v:v). After thorough mixing, the organic layer was separated from the aqueous portion by centrifugation at 12,000×g. The organic material was evaporated with a stream of argon. The residue was dissolved in methanol (200 μL) and the sample was analyzed by HPLC.

ICR mice = assay: Forced-swim test in ICR mice; type: in vivo, mouse
Description: Forty male ICR mice, weighed 26.2±0.3 g, were housed in a temperature-controlled room (22-23° C.) and maintained on a 12-hour on 12-hour off light cycle (lights on at 6:00 AM). Water and food were freely available in the home cages. […] Saline containing the same percentage of DMSO was used as vehicle. The lower doses were tested followed by the larger doses 1 week later, when the mice were again randomly divided into four groups as described above. The forced-swim test (FST) was carried out as described previously. Mice were given a swimming pretest session, once a day for two successive days. Twenty-four hours after the last session, mice were injected vehicle or the lower dose of each test compound by the i.p. route 30 min prior to the FST. One week later, administration of the larger dose of each of the test compounds was repeated. During the pretest and test sessions, each mouse was placed for 6 min in a plastic cylinder (45 cm high×20 cm diameter), which was filled to a depth of 28 cm with water (23±1° C.). The duration of immobility, which was defined as floating in an upright position without additional activity other than that necessary for the animal to keep its head above water, was recorded.

human PDE4A1 = target: T1, human PDE4A1 (Homo sapiens, UniProt P27815); assay: Inhibition of cAMP hydrolysis by recombinant human PDE4A1; type: biochemical
T1 construct: made in house
T1 sequence (P27815 1-647 isoform P27815-4): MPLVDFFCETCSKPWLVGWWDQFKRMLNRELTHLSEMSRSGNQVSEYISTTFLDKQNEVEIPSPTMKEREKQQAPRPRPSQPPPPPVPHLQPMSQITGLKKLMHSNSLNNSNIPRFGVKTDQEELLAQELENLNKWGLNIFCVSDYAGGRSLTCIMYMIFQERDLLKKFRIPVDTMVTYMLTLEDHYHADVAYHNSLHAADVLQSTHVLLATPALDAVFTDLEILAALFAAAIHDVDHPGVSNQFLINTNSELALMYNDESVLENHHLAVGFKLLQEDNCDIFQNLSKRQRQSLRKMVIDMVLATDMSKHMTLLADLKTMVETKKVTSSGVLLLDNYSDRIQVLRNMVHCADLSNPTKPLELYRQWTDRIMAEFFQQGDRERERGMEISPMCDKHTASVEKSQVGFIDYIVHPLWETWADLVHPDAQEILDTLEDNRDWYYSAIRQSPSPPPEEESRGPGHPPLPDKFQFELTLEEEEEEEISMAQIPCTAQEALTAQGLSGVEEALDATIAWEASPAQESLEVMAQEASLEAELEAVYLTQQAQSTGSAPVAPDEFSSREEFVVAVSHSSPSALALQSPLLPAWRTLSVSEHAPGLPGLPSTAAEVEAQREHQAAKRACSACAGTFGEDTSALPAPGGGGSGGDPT
Description: (§2) PDE4 enzyme assays were carried out as described previously. Studies with recombinant PDE4 enzymes were carried out in the laboratory of Professor Marco Conti (Stanford University, Palo Alto, Calif.).

human PDE4B3 = target: T2, human PDE4B3 (Homo sapiens, UniProt Q07343); assay: Inhibition of cAMP hydrolysis by recombinant human PDE4B3; type: biochemical; conditions: Example 29
T2 construct: made in house
T2 sequence (Q07343 1-721 isoform Q07343-3): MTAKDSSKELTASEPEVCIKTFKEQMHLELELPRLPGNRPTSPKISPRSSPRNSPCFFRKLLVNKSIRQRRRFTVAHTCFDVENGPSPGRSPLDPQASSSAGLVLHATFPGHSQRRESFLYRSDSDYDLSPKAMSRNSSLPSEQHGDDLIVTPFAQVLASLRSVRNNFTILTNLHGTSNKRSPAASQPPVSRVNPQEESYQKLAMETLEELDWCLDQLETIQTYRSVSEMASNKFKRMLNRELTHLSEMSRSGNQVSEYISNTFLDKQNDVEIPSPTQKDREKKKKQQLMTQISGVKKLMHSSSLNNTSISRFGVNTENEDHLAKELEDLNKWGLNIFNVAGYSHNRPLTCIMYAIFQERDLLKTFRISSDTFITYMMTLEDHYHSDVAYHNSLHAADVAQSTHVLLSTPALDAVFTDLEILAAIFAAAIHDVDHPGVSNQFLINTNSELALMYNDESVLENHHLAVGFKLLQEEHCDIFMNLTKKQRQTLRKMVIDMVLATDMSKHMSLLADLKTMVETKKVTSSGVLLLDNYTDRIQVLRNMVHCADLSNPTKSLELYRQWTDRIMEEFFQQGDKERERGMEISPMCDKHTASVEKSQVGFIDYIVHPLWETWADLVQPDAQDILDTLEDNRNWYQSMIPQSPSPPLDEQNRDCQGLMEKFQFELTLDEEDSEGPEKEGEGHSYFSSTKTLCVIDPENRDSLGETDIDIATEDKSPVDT
Description: as §2

rodent PDE4 = assay: Inhibition of rodent PDE4 (rolipram binding sites); conditions: Table 4
Description: IC50 values for inhibitor interaction with this site were calculated by nonlinear regression analysis of competition curves for unlabeled PDE4 inhibitors; Ki values were determined according to the method of Cheng and Prusoff (1973). […] Competition curves for the PDE4 inhibitors were subjected to nonlinear regression analysis and IC50 values with which the inhibitors bind to each of the binding sites was determined; K1 values were determined according to the method of Cheng and Prusoff (1973).

human PDE4D3 = target: T3, human PDE4D3 (Homo sapiens, UniProt Q08499); assay: Inhibition of cAMP hydrolysis by recombinant human PDE4D3; type: biochemical
T3 construct: made in house; host or cells: Cos 7 cells (construct and cells a gift from Dr. Conti, Stanford)
T3 sequence (Q08499 1-673 isoform Q08499-2): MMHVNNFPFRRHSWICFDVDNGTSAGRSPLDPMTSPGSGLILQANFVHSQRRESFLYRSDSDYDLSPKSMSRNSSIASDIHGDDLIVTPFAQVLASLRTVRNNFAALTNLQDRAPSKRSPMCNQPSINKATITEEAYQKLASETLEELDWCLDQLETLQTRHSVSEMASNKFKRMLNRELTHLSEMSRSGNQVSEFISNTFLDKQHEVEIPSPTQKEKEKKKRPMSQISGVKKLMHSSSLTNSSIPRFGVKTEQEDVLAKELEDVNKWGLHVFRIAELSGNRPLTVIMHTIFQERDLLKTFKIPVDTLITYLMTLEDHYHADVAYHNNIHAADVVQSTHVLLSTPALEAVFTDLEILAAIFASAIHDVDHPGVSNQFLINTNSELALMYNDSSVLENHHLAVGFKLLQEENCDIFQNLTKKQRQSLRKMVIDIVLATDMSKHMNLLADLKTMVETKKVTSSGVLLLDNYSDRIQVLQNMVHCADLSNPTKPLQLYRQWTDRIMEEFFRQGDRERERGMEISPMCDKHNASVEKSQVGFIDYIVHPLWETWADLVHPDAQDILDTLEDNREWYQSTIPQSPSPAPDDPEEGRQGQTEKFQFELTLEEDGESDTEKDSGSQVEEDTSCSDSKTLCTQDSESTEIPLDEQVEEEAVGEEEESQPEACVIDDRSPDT
Description: The PDE construct was transfected into Cos 7 cells in round culture dish (100×20 mm). The cells were then harvested and homogenized with lysis buffer. The crude homogenate was spun at maximum speed in a microfuge. The supernatant fluid was saved as an extract. […] The PDE construct and Cos 7 cells were a kind gift from Dr. Conti at the Stanford University School of Medicine.
as §2

[2] = Mouse liver microsome stability assay; type: in vitro ADME; conditions: for half life, mouse liver microsomes: NADPH; for MLM t1/2: Table 16
Description: (§3) A typical assay mixture contained either mouse or rat liver microsomes (0.5 mg of protein), […] potassium phosphate buffer (pH 7.4), 40 μM test compounds, 0.5 mM NADP+, 0.5 mM glucose-6-phosphate, 5 IU/mL glucose-6-phosphate dehydrogenase, 1 mg/mL diethylenetriaminepentaacetic acid (DETAPAC) and 5 mM MgCl2 in a final incubation volume of 0.1 mL. After 0, 10, 25, 40 and […], the incubations were stopped by the addition of 1 ml CH2Cl2/2-propanol (3:1 v:v). The mixture was centrifuged at 12,000×g for 1 min, and the organic layer was separated from the aqueous fraction. The organic fraction was evaporated with a stream of argon and the residue was taken up in methanol (200 μL) and injected into the HPLC system described above.
as §1

GRK2 = target: T4, GRK2 (Homo sapiens, UniProt P25098); assay: High throughput KinaseGlo kinase assay; type: biochemical
T4 construct: host or cells: gift of a collaborator (Professor Benovic, Thomas Jefferson University)
T4 sequence (P25098 1-689): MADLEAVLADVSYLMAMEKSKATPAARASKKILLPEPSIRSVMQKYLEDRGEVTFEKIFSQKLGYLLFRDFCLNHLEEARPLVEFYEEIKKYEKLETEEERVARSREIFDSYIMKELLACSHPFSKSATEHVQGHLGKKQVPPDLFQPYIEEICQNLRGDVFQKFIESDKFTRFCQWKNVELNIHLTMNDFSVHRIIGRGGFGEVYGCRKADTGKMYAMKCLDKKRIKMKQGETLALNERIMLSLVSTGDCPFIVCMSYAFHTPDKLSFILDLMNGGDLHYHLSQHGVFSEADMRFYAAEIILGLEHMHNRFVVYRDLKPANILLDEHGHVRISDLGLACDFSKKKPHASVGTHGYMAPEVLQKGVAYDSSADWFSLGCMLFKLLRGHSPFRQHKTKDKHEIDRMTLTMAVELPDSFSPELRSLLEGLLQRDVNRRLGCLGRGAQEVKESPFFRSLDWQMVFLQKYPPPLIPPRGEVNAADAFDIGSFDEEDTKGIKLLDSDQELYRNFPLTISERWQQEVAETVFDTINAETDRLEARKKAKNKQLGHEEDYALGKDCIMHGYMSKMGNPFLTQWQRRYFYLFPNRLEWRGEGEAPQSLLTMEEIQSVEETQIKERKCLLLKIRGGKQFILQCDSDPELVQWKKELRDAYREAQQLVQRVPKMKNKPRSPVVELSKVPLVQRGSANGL

[3] = Rat liver microsome stability assay; type: in vitro ADME
Description: as §3
as §1, with “After 0, 10, 25, 40 and 60 min, the incubations were stopped by the addition of 1 mL CH2Cl2/2-propanol (3:1, v:v). After thorough mixing, the organic layer was separated from the aqueous portion by centrifugation at 12,000×g. The organic material was evaporated with a stream of argon.” left out

mice = assay: Morris water maze test; type: in vivo, mouse; conditions: 3 mg/kg, compared to control mice
Description: Compounds 19 and 115 were tested in a Morris water maze test. The escape latency (time to climb onto a hidden platform) for each mouse was recorded as a memory test. […] Compared to a group of control mice, compound 19 and 115 caused a 30% improvement in memory at 3 mg/kg. […] This is not completely unexpected as SSRIs often require repeated dosing to see a large and significant effect. […] Multiple dosing likely will increase the efficacy of the compounds tested.

- metabolism in human liver microsomes ([1]; NADPH, up to 60 min): not detectably metabolized
- half-life at 40 μM ([1]; human, liver microsomes, pH 7.4, Table 16, read-out: HLM t1/2): > 1 h
- Ki (human PDE4A1; Example 29, read-out: Ki, human PDE4A1): > 1000 nM
- Ki (human PDE4A1; Table 14, read-out: Human PDE4A1 Ki): < 1000 nM
- Ki (human PDE4B3): 199 nM
- pIC50 (rodent PDE4): 6.6
- PDE4A1/PDE4D3 inhibitory selectivity ratio (human PDE4D3): < 500 fold
- PDE4B3/PDE4D3 inhibitory selectivity ratio (human PDE4D3): 100 fold
- Ki (human PDE4D3; Example 29, read-out: Ki, human PDE4D3): 2 nM
- half life, mouse liver microsomes [2]: 2.57 h
- MLM t1/2 [2]: 2.565 h
Compound: COc1ccc(F)cc1CCC1CCC(CCNCCCCCN2N=C(c3ccc(OC)c(OC)c3)C3CC=CCC3C2=O)O1 (racemic) [Compound 21, 4-(3,4-Dimethoxy-phenyl)-2-[5-(2-{5-[2-(5-fluoro-2-methoxy-phenyl)-ethyl]-thtrahydro-furan-2-yl}-ethylamino)-pentyl]-4,5,8,8a-tetrahydro-2H-phthalazin-1-one]
- immobility, forced-swim test, subchronic (Balb/c mice): did not change immobility
- immobility, forced-swim test, acute, higher dose (ICR mice; 3 mg/kg i.p., vs vehicle, P<0.05): significantly reduced immobility
- duration of immobility, forced-swim test, acute (ICR mice; 0.3 and 3 mg/kg i.p.): decreased duration of immobility in a dose-dependent manner
- efficacy relative to fluoxetine on a molar basis (ICR mice; 21 0.5 μmol/kg vs fluoxetine 65 μmol/kg): 129 fold

Compound: NC1CC1c1cccnc1 (stereo not shown) [2-(pyridine-3-yl)cyclopropanamine]
- GRK2 stimulation or inhibition (GRK2): potent stimulators of GRK2

- half life, rat liver microsomes ([3]; NADPH): 2.15 h
- RLM t1/2 ([3]; Table 16): 2.15 h
- half life, mouse liver microsomes [2]: 0.967 h
- MLM t1/2 [2]: 0.975 h
Compound: CNCCC1CCC(CCc2cc(F)ccc2OC)O1 (stereo not shown) [Compound 24, (2-{5-[2-(5-Fluoro-2-methoxy-phenyl)-ethyl]-tetrahydro-furan-2-yl}-ethyl)-methyl-amine]

Compound: COc1ccc(F)cc1CCC1CCC(CCN)O1 (stereo not shown) [Compound 28]
- GRK2 stimulation or inhibition (GRK2): potent stimulators of GRK2
- improvement in memory (escape latency) (mice): ~10%
